Reference: PMC12494546, “Structural basis of heme scavenging by the ChtA and HtaA hemophores in Corynebacterium diphtheriae” (The Journal of Biological Chemistry, 2025)
Where “and” joins values, the source holds several entries; their conditions need not be identical. Equal entries are not always repeated.

How the values were obtained:
ChtA^CR K177G = test: ITC of hemin binding to ChtA^CR K177G; design: species or system Corynebacterium diphtheriae; settings: 25 °C, average of three replicates
Source text: (§1) Protein samples were equilibrated in titration buffer supplemented with 5% (v/v) DMSO. […] Binding isotherms were fit to a one-site binding model using the program ORIGIN ([91]).

ChtA^CR Y178H = test: ITC of hemin binding to ChtA^CR Y178H; design: species or system Corynebacterium diphtheriae; settings: 25 °C, average of three replicates
Source text: as §1

IsdH NEAT domain = target: IsdH NEAT domain; design: method as in PMID 23649633, PMID 24245481; settings: ITC, ref [57], [58]; cited from earlier work
[1] = tested on: HtaA^CR2 (donor) / ChtA^CR (acceptor); test: Native ESI-MS hemin partitioning HtaA^CR2 → ChtA^CR; assay type: binding, Corynebacterium diphtheriae
Experimental: (§2) nESI-MS was used for ligand (heme)-competition experiments between CR domain pairs to determine their relative heme dissociation constant Krelative (Krel) ([37], [56]). In this approach, two different CR domains (e.g. a >90% heme-loaded “heme donor” and a <10% heme-loaded “heme acceptor” CR domain) are mixed and allowed to come to equilibrium (>6 h, 24 °C). The resulting mixture is then analyzed by nESI-MS, where the apo- and holo-abundance of each CR domain is determined from the sum peak intensity from each of their charge states as described previously ([37]). The relative affinity between the CR pair tested can be determined by their nESI-MS abundances according to Equation 1, which is derived from the ratio of each CR’s KD for heme. Importantly, this analysis is independent of [heme] and Krel should be consistent across different concentrations of [heme donor] and [heme acceptor]; thus, we used at least three different holo-donor and apo-acceptor stoichiometry ratios to determine each Krel reported in Table S4.(eq. 1) KRelative=[CR^hemeacceptor][CR^hemedonor·heme]/[CR^hemedonor][CR^hemeacceptor·heme]=Ab(CR^hemeacceptor)Ab(CR^hemedonor·heme)/Ab(CR^hemedonor)Ab(CR^hemeacceptor·heme)
(§3) For nESI-MS heme-competition experiments, CR domains were first buffer-exchanged into 50 mM ammonium acetate (pH 6.9) using dialysis or gel filtration and protein concentration was determined by bicinchoninic acid assay or UV-visible absorbance at 280 nm. Proteins were then mixed at donor:acceptor ratios ranging from 1:9 to 9:1 (but most often 1:3, 1:1, and 3:1), and incubated for at least 6 h at 24 °C. Equilibrated mixtures were then loaded into platinum-coated borosilicate emitter tips with an inner diameter of 200 to 500 nm pulled on a Sutter P-1000 Micropipette Puller and sprayed on a Q-Exactive UHMR Hybrid Quadrupole-Orbitrap Mass Spectrometer (Thermo Fisher Scientific).
(§4) Table of all CR pairs and stoichiometric ratios tested during the native ESI-MS heme equilibrium partitioning experiments. Apo or holo CR domains were mixed at various ratios (most commonly 1:3, 1:1, and 3:1, corresponding to 5:15 µM, 10:10 µM, or 15:5 µM, respectively).

IsdA NEAT domain = target: IsdA NEAT domain; design: method as in PMID 23649633, PMID 24245481; settings: ITC, ref [57], [58]; cited from earlier work
[2] = tested on: HtaA^CR1 (donor) / HtaB^CR (acceptor); test: Native ESI-MS hemin partitioning HtaA^CR1 → HtaB^CR; assay type: binding, Corynebacterium diphtheriae
Experimental: as §2, §3, §4

[3] = tested on: CR domains within C. diphtheriae’s hemin-uptake system; test: Hemin affinity across the cohort of CR domains (ITC and native MS partitioning); assay type: binding, Corynebacterium diphtheriae; settings: across ChtA^CR, HtaB^CR, HtaA^CR1, HtaA^CR2
Source text: (§5) The C. diphtheriae hemin-uptake system contains six CR domains that are located at distinct sites outside the cell (Fig. 1). […] Together, they represent nearly the full complement of C. diphtheriae’s CR domains (only the domains from ChtB and ChtC are missing, but they are expected to have similar binding properties as their paralogs, HtaB and ChtA, respectively). […] Similar measurements were made for the following protein pairs: HtaA^CR2/HtaB^CR, HtaA^CR1/HtaB^CR, HtaA^CR2/HtaA^CR1, ChtA^CR/HtaA^CR2, and ChtA^CR/HtaB^CR (Table S4).
nESI-MS was used for ligand (heme)-competition experiments between CR domain pairs to determine their relative heme dissociation constant Krelative (Krel) ([37], [56]). […] The resulting mixture is then analyzed by nESI-MS, where the apo- and holo-abundance of each CR domain is determined from the sum peak intensity from each of their charge states as described previously ([37]). The relative affinity between the CR pair tested can be determined by their nESI-MS abundances according to Equation 1, which is derived from the ratio of each CR’s KD for heme. […]
(§6) For nESI-MS heme-competition experiments, CR domains were first buffer-exchanged into 50 mM ammonium acetate (pH 6.9) using dialysis or gel filtration and protein concentration was determined by bicinchoninic acid assay or UV-visible absorbance at 280 nm. […]

HtaA^CR1 / HtaA^CR2 = test: Native ESI-MS hemin partitioning HtaA^CR1 → HtaA^CR2; assay type: binding, Corynebacterium diphtheriae; settings: transfer HtaA^CR1 → HtaA^CR2 (donor HtaA^CR2, acceptor HtaA^CR1)
Experimental: as §2, §3, §4

[4] = tested on: HtaA^CR2 (donor) / HtaB^CR (acceptor); test: Native ESI-MS hemin partitioning HtaA^CR2 → HtaB^CR; assay type: binding, Corynebacterium diphtheriae
Experimental: as §2, §3, §4

[5] = tested on: HtaB^CR (donor) / HtaA^CR2 (acceptor); test: Native ESI-MS hemin partitioning HtaB^CR → HtaA^CR2; assay type: binding, Corynebacterium diphtheriae
Experimental: as §2, §3, §4

[6] = target: HtaB^CR (HtaB, residues of 30–273); test: Estimated hemin KD from native ESI-MS partitioning; assay type: binding, Corynebacterium diphtheriae; settings: read-out: estimated KD for hemin, from nESI-MS Krel using ITC value of ChtA^CR as reference
Source text: as §5, §2, §6

[7] = target: HtaA^CR1 (residues S37-G214); test: Estimated hemin KD from native ESI-MS partitioning; assay type: binding, Corynebacterium diphtheriae; settings: read-out: estimated KD for hemin, from nESI-MS Krel using ITC value of ChtA^CR as reference
Source text: as §5, §2, §6

[8] = target: HtaA^CR2 (residues G344-G506); test: Estimated hemin KD from native ESI-MS partitioning; assay type: binding, Corynebacterium diphtheriae; settings: read-out: estimated KD for hemin, from nESI-MS Krel using ITC value of ChtA^CR as reference
Source text: as §5, §2, §6

metHb = target: T1, metHb (Homo sapiens, UniProt P68871+P69905); test: Hemin release kinetics from metHb (A405 plate reader assay with apo-acceptor); assay type: binding; settings: 5 µM metHb, brackets 95% confidence interval; for kfast / kslow: 25 °C
T1 construct: blood-purified HbA in the carbonmonoxy form; from tissue; host or cells: blood
T1 sequence (P69905 2-142 limits assumed): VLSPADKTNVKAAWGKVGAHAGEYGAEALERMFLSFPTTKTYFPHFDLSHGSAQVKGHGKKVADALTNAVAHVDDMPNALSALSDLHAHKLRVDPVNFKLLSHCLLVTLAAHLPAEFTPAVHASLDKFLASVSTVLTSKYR
T1 sequence (P68871 2-147 limits assumed): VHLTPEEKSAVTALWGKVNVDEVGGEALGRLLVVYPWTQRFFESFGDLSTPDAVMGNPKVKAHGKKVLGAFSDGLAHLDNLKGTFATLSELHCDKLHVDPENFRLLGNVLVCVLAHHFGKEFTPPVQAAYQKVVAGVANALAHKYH
Experimental: Holo-metHb was injected to a final concentration of 5 μM on the heme basis in triplicate with 50 μM of the respective apo protein in a 384-well plate. The absorbance at 405 nm was measured every 2.5 min for 20 h in a SpectraMax iD3 plate reader (Molecular Devices). Experiments were performed at 25 °C to avoid apo-globin aggregation. Resulting curves were fit to a two-phase exponential decay equation in GraphPad Prism version 9.5.0 (GraphPad Software).
Bracketed values represent the 95% confidence interval for the fitted parameter values.

ChtA^CR Y178A = test: ITC of hemin binding to ChtA^CR Y178A; design: species or system Corynebacterium diphtheriae
Source text: as §1

ChtA^CR K177G + Y178H = test: ITC of hemin binding to ChtA^CR K177G + Y178H; design: species or system Corynebacterium diphtheriae; settings: 25 °C, average of three replicates
Source text: as §1

ChtA^CR Y129A = test: ITC of hemin binding to ChtA^CR Y129A; design: species or system Corynebacterium diphtheriae
Source text: as §1

[9] = apo-acceptor Myoglobin^H64Y/V68F 50 µM

In the case of hemin, the Kd (ChtA^CR K177G) is given as 0.0236 ± 0.0008 µM, the Kd (ChtA^CR Y178H) is given as 0.0548 ± 0.0019 µM and the Kd (IsdH NEAT domain) is given as 0.034 ± 0.008 µM. For the same substance, the Krel inverse ([1]; AVERAGE) was 24.96 ± 8.87, the “Krel (donor/acceptor)” value ([1]; ratio 1:1) was 0.05 and the Krel inverse ([1]; ratio 1:1) was 18.29. For the same substance, the “Krel (donor/acceptor)” value ([1]; ratio 1:3) was 0.05, the Krel inverse ([1]; ratio 1:3) was 19.27 and the “Krel (donor/acceptor)” value ([1]; ratio 2:1) was 0.03 and 0.06. The Krel inverse ([1]; ratio 3:1) was 32.96, the “Krel (donor/acceptor)” value ([1]; ratio (donor:acceptor) 3:1) was 0.03 and the Kd (IsdA NEAT domain) was 0.014 ± 0.004 µM. The “Krel (donor/acceptor)” value ([2]; AVERAGE) was 5.75 ± 1.4, the Krel inverse ([2]; AVERAGE) was 0.18 ± 0.05 and the “Krel (donor/acceptor)” value ([2]; ratio 1:1) was 7.51 and 4.09 and 6.88. For the same substance, the Krel inverse ([2]; ratio 1:1) was 0.13 and 0.24 and 0.15, the “Krel (donor/acceptor)” value ([2]; ratio 1:3) was 4.46 and 4.42 and the Krel inverse ([2]; ratio 1:3) was 0.22 and 0.23. For the same substance, the “Krel (donor/acceptor)” value ([2]; ratio 3:1) was 6.16 and 6.76, the Krel inverse ([2]; ratio 3:1) was 0.16 and 0.15 and the “variation in binding strength” value [3] was roughly 25 fold. For the same substance, the “Krel (donor/acceptor)” value (HtaA^CR1 / HtaA^CR2; AVERAGE) was 0.84 ± 0.12, the Krel inverse (HtaA^CR1 / HtaA^CR2; AVERAGE) was 1.2 ± 0.15 and the “Krel (donor/acceptor)” value (HtaA^CR1 / HtaA^CR2; ratio 1:1) was 0.78. For the same substance, the Krel inverse (HtaA^CR1 / HtaA^CR2; ratio 1:1) was 1.28, the “Krel (donor/acceptor)” value (HtaA^CR1 / HtaA^CR2; ratio 1:3) was 0.98 and the Krel inverse (HtaA^CR1 / HtaA^CR2; ratio 1:3) was 1.02. The “Krel (donor/acceptor)” value (HtaA^CR1 / HtaA^CR2; ratio 3:1) was 0.77, the Krel inverse (HtaA^CR1 / HtaA^CR2; ratio 3:1) was 1.29 and the “Krel (donor/acceptor)” value ([4]; AVERAGE) was 4.93 ± 0.88. The Krel inverse ([4]; AVERAGE) was 0.21 ± 0.04, the “Krel (donor/acceptor)” value ([4]; ratio 1:1) was 3.92 and the Krel inverse ([4]; ratio 1:1) was 0.26. The “Krel (donor/acceptor)” value ([4]; ratio 1:3) was 5.31, the Krel inverse ([4]; ratio 1:3) was 0.19 and the “Krel (donor/acceptor)” value ([4]; ratio 3:1) was 5.56. For the same substance, the Krel inverse ([4]; ratio 3:1) was 0.18, the “Krel (donor/acceptor)” value ([5]; acceptor HtaA^CR2, AVERAGE) was 0.18 ± 0.01 and the Krel inverse ([5]; acceptor HtaA^CR2, AVERAGE) was 5.66 ± 0.33. The “Krel (donor/acceptor)” value ([5]; acceptor HtaA^CR2, ratio 1:1) was 0.17, the Krel inverse ([5]; acceptor HtaA^CR2, ratio 1:1) was 5.8 and the “Krel (donor/acceptor)” value ([5]; acceptor HtaA^CR2, ratio 1:3) was 0.17. For the same substance, the Krel inverse ([5]; acceptor HtaA^CR2, ratio 1:3) was 5.9, the “Krel (donor/acceptor)” value ([5]; acceptor HtaA^CR2, ratio 3:1) was 0.19 and the Krel inverse ([5]; acceptor HtaA^CR2, ratio 3:1) was 5.28. The Kd [6] was 0.0054 ± 0.001 µM, the Kd [7] was 0.0011 ± 0.0003 µM and the Kd [8] was 0.00085 ± 0.00015 µM. For the same substance, the kfast (metHb; apo-acceptor ChtA^CR 50 µM) was 1.78 [1.51 - 2.1] hr^-1, the kslow (metHb; apo-acceptor ChtA^CR 50 µM) was 0.18 [0.17 - 0.19] hr^-1 and the “%kfast” value (metHb; apo-acceptor ChtA^CR 50 µM) was 35.52% [33.1% - 37.9%]. For the same substance, the kfast (metHb; apo-acceptor HtaA^CR1 50 µM) was 1.55 [1.13 - 2.15] hr^-1, the kslow (metHb; apo-acceptor HtaA^CR1 50 µM) was 0.21 [0.18 - 0.23] hr^-1 and the “%kfast” value (metHb; apo-acceptor HtaA^CR1 50 µM) was 33.11% [26.9% - 39%]. The kfast (metHb; apo-acceptor HtaA^CR2 50 µM) was 2.46 [2.23 - 2.72] hr^-1, the kslow (metHb; apo-acceptor HtaA^CR2 50 µM) was 0.21 [0.19 to 0.22] hr^-1 and the “%kfast” value (metHb; apo-acceptor HtaA^CR2 50 µM) was 41.11% [39.3% - 42.9%]. The kslow (metHb; [9]) was 0.13 [0.11 - 0.14] hr^-1, the “%kfast” value (metHb; [9]) was 34.6% [30.8% - 38.3%] and the reduction of affinity (ChtA^CR Y178A; ChtA^CR Y178A versus WT) was roughly 2 fold. For the same substance, the Kd (ChtA^CR Y178A; ChtA^CR Y178A, 25 °C, average of three replicates) was 0.0466 ± 0.0096 µM, the Kd (ChtA^CR K177G + Y178H) was 0.0271 ± 0.009 µM and the “decrease in binding affinity” value (ChtA^CR Y129A; ChtA^CR Y129A versus WT) was greater than 25 fold. For the same substance, the Kd (ChtA^CR Y129A; ChtA^CR Y129A, 25 °C, average of three replicates) was greater than 0.5 µM.
